US10100064B2, “Purine inhibitors of human phosphatidylinositol 3-kinase delta” (Merck Sharp & Dohme Corp., priority 2014, dated 2018)

Tests used:
PI3Kdelta = molecular target: T1, PI3Kdelta (Homo sapiens, UniProt O00329); experiment: HTRF PI3K biochemical assay, delta isoform; details: 0.3 nM enzyme, 100 uM ATP, 5 uM PIP2, form screened (Neutral or TFA salt) given per compound
T1 construct: purchased Upstate; Millipore 14-604
Source text: (§1) HTRF PI3K Biochemical Assay to Measure Intrinsic Potency of Compound Inhibitors
(§2) The PI3-Kinase biochemical assays were developed to measure the intrinsic potency and compound dependent inhibition of the alpha, beta, delta, and gamma PI3K isoform enzymes. This assay was developed and further optimized from a kit produced by Upstate (Millipore catalog #33-047) and has been configured for HTS and SAR screening. Briefly, this procedure exploits the exquisite specificity and high affinity binding of […] phosphatidyl(3,4,5)triphosphate (PIP3) to the GRP1 pleckstrin homology (PH) domain to generate the signal. In the absence of PIP3, an HTRF (Homogeneous Time-Resolved Fluorescence energy transfer) complex is formed consisting of europium (Eu)-labeled anti-GST, GSTtagged GRP1-PH domain, biotin-PIP3 and streptavidin conjugated APC. The native PIP3 produced by PI3-Kinase activity disrupts in a competitive manner the biotin-PIP3 from the PH domain, resulting in the loss of energy transfer (HTRF complex) and a decrease in the signal. The format of this assay is the same for all 4 isoforms of PI3K; the differences lie in the concentration of enzyme used to achieve robust assay window. The alpha, beta, and delta assays are run at 0.5, 1, and 0.3 nM enzymes and the gamma assay is run at 5 nM enzyme. The ATP concentration is 100 uM in the alpha, beta, and delta assays and 50 uM ATP in the gamma assay. All reactions are run at 5 uM PIP2.
(§3) Compounds are serially diluted (3-fold in 100% DMSO) across a 384-well polypropylene source plated from column 3 to column 12 and column 13 to column 22, to yield 10 concentration dose response for each test compound. Columns 1, 2, 23 and 24 contain either only DMSO or pharmacological known control inhibitor. Once titrations are made, 2.5 nL of the compounds on 384 well plates are reformatted and transferred by acoustic dispense in quadruplicates to a 1536 assay plate (Greiner) to assay across all four PI3K isoform enzymes.
(§4) The PI3-Kinase biochemical assay was optimized using the HTRF kit provided by Upstate (Millipore). The assay kit contains six reagents: 1) 4× Reaction Buffer; 2) native PIP2 (substrate); 3) Stop (EDTA); 4) Detection Mix A (Streptavidin-APC); 5) Detection Mix B (Eu-labeled Anti-GST plus GST-tagged PH-domain); 6) Detection Mix C. In addition, the following items were obtained or purchased; PI3Kinase (alpha 14-602, beta 14-603, gamma 14-558 and delta 14-604 from Upstate; Millipore), dithiothreitol (Sigma, D-5545), Adenosine-5′ triphosphate (InVitrogen, Cat#AS001A), native PIP3 (PI(3,4,5)P3, diC8, H^+, CELLSIGNALS, INC. Cat #907) DMSO (Sigma, 472301).
(§5) PI3Kinase Reaction Buffer is prepared by dilution the stock 1:4 with de-ionized water. DTT, PIP2 and Biotin-PIP3 were added to 1536 assay plate at a final concentration of 5 mM, […] 25 nM on the day of use. Enzyme addition and compound pre-incubation are initiated by the addition of 1.25 ul of PI3K (at twice its final concentration) in the 1× reaction buffer to all wells using a BioRaptor. Plates are incubated at room temperature for 15 minutes. Reactions are initiated by addition of 1.25 ul of 2× substrate solution (PIP2 and ATP in 1× reaction buffer) using BioRaptor. Plates are incubated in humidified chamber at room temperature for one hour. Reactions are quenched by addition of 0.625 uL of stop solution to all wells using the BioRaptor. The quenched reactions are then processed to detect product formation by adding 0.625 uL of Detection Solution to all wells using the BioRaptor (Detection mix C, Detection Mix A, and Detection Mix B combined together in an 18:1:1 ratio prepared 2 hours prior to use). Following a one hour incubation in the dark, the HTRF signal is measured on the Envision plate reader set for 330 nm excitation and dual emission detection at […]. […]

PI3Kalpha = molecular target: T2, PI3Kalpha (Homo sapiens, UniProt P42336); experiment: HTRF PI3K biochemical assay, alpha isoform (selectivity versus delta); details: relative ratio PI3K-alpha IC50 value / PI3K-delta IC50 value
T2 construct: purchased Upstate; Millipore 14-602
T2 sequence (P42336 whole entry, canonical isoform): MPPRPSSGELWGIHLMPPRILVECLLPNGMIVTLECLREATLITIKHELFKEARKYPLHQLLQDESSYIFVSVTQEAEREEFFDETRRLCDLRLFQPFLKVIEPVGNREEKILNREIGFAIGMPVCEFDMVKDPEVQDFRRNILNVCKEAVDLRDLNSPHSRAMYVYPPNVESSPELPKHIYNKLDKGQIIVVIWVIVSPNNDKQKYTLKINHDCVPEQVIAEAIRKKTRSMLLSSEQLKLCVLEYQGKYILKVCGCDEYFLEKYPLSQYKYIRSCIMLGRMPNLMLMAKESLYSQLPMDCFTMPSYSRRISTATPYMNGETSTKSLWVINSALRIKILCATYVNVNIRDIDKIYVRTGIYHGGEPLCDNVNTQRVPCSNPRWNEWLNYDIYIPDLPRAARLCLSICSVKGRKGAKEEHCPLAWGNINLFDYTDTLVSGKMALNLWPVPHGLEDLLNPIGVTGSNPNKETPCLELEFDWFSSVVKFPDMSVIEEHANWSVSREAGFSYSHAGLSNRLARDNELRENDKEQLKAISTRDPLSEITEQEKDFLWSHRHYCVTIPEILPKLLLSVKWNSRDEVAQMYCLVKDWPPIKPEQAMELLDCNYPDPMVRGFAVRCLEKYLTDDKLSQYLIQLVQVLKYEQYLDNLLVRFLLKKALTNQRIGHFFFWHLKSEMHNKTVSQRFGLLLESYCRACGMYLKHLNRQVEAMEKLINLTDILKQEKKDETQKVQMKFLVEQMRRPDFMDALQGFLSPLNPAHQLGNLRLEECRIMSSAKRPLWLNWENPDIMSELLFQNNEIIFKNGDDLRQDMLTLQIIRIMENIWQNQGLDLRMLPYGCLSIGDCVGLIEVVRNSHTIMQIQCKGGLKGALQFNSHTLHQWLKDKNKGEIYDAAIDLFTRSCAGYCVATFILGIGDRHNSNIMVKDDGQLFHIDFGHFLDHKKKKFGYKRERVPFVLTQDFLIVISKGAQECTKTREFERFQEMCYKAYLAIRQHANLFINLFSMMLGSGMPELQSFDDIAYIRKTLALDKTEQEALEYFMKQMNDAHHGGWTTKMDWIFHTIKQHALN
T2 sequence (P27986 whole entry partner, canonical isoform): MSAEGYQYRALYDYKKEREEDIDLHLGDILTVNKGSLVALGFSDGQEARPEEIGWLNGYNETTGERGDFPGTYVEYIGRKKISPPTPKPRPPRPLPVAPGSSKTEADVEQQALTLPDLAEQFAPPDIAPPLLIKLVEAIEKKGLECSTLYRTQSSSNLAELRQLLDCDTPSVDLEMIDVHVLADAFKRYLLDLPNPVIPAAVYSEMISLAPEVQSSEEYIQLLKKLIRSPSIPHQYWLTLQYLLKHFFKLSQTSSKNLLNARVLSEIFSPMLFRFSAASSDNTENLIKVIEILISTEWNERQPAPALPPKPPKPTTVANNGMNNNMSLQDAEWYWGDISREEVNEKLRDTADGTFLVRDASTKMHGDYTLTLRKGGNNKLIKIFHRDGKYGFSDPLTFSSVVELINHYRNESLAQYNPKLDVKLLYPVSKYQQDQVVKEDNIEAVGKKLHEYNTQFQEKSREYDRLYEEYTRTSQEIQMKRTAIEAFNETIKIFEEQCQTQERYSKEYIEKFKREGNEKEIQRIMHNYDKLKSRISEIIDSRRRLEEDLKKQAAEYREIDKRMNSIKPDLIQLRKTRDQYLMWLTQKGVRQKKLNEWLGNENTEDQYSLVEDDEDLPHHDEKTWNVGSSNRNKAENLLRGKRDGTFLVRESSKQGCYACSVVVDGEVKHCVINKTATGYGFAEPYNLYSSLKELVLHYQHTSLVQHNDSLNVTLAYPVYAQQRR
Source text: as §1, §2, §3, §4, §5

T1 sequence (O00329 whole entry, canonical isoform): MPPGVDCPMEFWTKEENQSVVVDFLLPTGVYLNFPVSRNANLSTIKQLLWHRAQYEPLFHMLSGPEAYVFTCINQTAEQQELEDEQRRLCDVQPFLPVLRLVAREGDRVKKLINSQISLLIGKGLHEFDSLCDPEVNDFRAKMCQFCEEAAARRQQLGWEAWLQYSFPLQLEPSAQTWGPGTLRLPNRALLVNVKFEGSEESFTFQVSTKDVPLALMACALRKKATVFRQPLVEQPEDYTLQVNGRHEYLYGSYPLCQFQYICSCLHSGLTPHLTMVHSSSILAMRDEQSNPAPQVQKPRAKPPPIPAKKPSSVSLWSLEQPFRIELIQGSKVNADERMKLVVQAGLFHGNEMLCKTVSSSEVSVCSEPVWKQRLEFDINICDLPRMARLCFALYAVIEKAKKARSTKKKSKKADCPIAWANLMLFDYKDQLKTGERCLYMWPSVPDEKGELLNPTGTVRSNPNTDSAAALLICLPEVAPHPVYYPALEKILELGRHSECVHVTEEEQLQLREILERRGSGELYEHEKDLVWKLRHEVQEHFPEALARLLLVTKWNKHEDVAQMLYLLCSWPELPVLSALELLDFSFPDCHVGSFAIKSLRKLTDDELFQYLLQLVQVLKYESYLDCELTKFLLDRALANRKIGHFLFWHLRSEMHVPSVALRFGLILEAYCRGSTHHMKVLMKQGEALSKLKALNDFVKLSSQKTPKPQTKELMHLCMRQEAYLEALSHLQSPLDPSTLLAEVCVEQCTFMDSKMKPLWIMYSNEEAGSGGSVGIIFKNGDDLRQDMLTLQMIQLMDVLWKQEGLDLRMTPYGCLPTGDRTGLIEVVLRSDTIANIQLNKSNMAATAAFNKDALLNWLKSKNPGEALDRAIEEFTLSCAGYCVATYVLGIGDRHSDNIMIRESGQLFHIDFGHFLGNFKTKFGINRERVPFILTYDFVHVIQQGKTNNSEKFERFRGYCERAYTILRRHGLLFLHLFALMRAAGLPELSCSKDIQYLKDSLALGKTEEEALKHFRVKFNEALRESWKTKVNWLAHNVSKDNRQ
T1 sequence (P27986 whole entry partner, canonical isoform): as the sequence (P27986 whole entry partner, canonical isoform) above

Row | SMILES | IC50 (PI3Kdelta) | Selectivity versus PI3Kalpha (PI3Kalpha)
1 | CCn1c(-c2ccc(C(F)(F)F)nc2)nc2c(NC3CCc4nnc(C(C)C)n4C3)ncnc21 (single isomer, unassigned) [Compound 1-18, (S or R)-9-ethyl-N-[3-(1-methylethyl)-5,6,7,8-tetrahydro[1,2,4]triazolo[4,3-a]pyridin-6-yl]-8-[6-(trifluoromethyl)pyridin-3-yl]-9H-purin-6-amine] | < 1 nM | >10
2 | CCn1c(-c2ccc(C(F)(F)F)nc2)nc2c(NC3CCc4nnc(C(C)C)n4C3)ncnc21 (single isomer, unassigned) [Compound 1-19, (S or R)-9-ethyl-N-[3-(1-methylethyl)-5,6,7,8-tetrahydro[1,2,4]triazolo[4,3-a]pyridin-6-yl]-8-(6-(trifluoromethyl)pyridin-3-yl]-9H-purin-6-amine] | 31 nM | >10
3 | CCn1c(-c2ccc(C(F)(F)F)cc2)nc2c(NC3CCc4nnc(C(C)C)n4C3)ncnc21 (single isomer, unassigned) [Compound 1-20, (S or R)-9-ethyl-N-[(6S)-3-(1-methylethyl)-5,6,7,8-tetrahydro[1,2,4]triazolo[4,3-a]pyridin-6-yl]-8-[4-(trifluoromethyl)phenyl]-9H-purin-6-amine] | < 1 nM | >10
4 | CCn1c(-c2cnc(OC)c(F)c2)nc2c(NC3CCc4nnc(C(C)C)n4C3)ncnc21 (single isomer, unassigned) [Compound 1-21, (S or R)-9-ethyl-8-(5-fluoro-6-methoxypyridin-3-yl)-N-[3-(1-methylethyl)-5,6,7,8-tetrahydro[1,2,4]triazolo[4,3-a]pyridin-6-yl]-9H-purin-6-amine] | < 1 nM | >10
5 | CCn1c(-c2cnc(OC)c(Cl)c2)nc2c(NC3CCc4nnc(C(C)C)n4C3)ncnc21 (single isomer, unassigned) [Compound 1-22, (S or R)-8-(5-chloro-6-methoxypyridin-3-yl)-9-ethyl-N-[3-(1-methylethyl)-5,6,7,8-tetrahydro[1,2,4]triazolo[4,3-a]pyridin-6-yl]-9H-purin-6-amine] | 221 nM | >10
6 | CCn1c(-c2cnn(-c3ccccc3)c2)nc2c(NC3CCc4nnc(C(C)C)n4C3)ncnc21 (single isomer, unassigned) [Compound 1-23, (S or R)-9-ethyl-N-[3-(1-mtthylethyl)-5,6,7,8-tetrahydro[1,2,4]triazolo[4,3-a]pyridin-6-yl]-8-(1-phenyl-1H-pyrazol-4-yl)-9H-purin-6-amine] | < 1 nM | >10
7 | CCn1c(-c2ccc(C(F)F)cc2)nc2c(NC3CCc4nnc(C(C)C)n4C3)ncnc21 (single isomer, unassigned) [Compound 1-24, 8-[4-(difluoromethyl)phenyl]-9-ethyl-N-[(6(S or R))-3-(1-methylethyl)-5,6,7,8-tetrahydro[1,2,4]triazolo[4,3-a]pyridin-6-yl]-9H-purin-6-amine] | 3.5 nM | >10
8 | CCn1c(-n2cnc(C(F)(F)F)c2)nc2c(NC3CCc4nnc(C(C)C)n4C3)ncnc21 (single isomer, unassigned) [Compound 1-25, 9-ethyl-N-[(6(S or R))-3-(1-methylethyl)-5,6,7,8-tetrahydro[1,2,4]triazolo[4,3-a]pyridin-6-yl]-8-[4-(trifluoromethyl)-1H-imidazol-1-yl]-9H-purin-6-amine] | 24 nM | >10
9 | CCn1c(I)nc2c(NC3CCc4nnc(C5CC5)n4C3)ncnc21 (single isomer, unassigned) [Compound 1-26, (S or R)-N-[3-cyclopropyl-5,6,7,8-tetrahydro[1,2,4]triazolo[4,3-a]pyridin-6-yl]-9-ethyl-8-iodo-9H-purin-6-amine] | 12 nM | >10
10 | CCn1c(I)nc2c(NC3CCc4nnc(C5CC5)n4C3)ncnc21 (single isomer, unassigned) [Compound 1-27, (S or R)-N-[3-cyclopropyl-5,6,7,8-tetrahydro[1,2,4]triazolo[4,3-a]pyridin-6-yl]-9-ethyl-8-iodo-9H-purin-6-amine] | 151 nM | >10
11 | CCn1c(-c2ccc(C(F)(F)F)cc2)nc2c(NC3CCc4nnc(C5CC5)n4C3)ncnc21 (single isomer, unassigned) [Compound 1-28, (S or R)-N-(3-cyclopropyl-5,6,7,8-tetrahydro[1,2,4]triazolo[4,3-a]pyridin-6-yl)-9-ethyl-8-[4-(trifluoromethyl)phenyl]-9H-purin-6-amine] | 1.4 nM | >10
12 | CCn1c(-c2ccc(C(F)(F)F)cc2)nc2c(NC3CCc4nnc(C5CC5)n4C3)ncnc21 (single isomer, unassigned) [Compound 1-29, (S or R)-N-(3-cyclopropyl-5,6,7,8-tetrahydro[1,2,4]triazolo[4,3-a]pyridin-6-yl)-9-ethyl-8-[4-(trifluoromethyl)phenyl]-9H-purin-6-amine] | 49 nM | >10
13 | CCn1c(-c2ccc(S(C)(=O)=O)nc2)nc2c(NC3CCc4nnc(C5CC5)n4C3)ncnc21 (single isomer, unassigned) [Compound 1-30, (S or R)-N-[(6S)-3-cyclopropyl-5,6,7,8-tetrahydro[1,2,4]triazolo[4,3-a]pyridin-6-yl]-9-ethyl-8-[6-(methylsulfonyl)pyridin-3-yl]-9H-purin-6-amine] | 8.3 nM | >10
14 | CCn1c(-c2cnc(C)nc2)nc2c(OC3CCc4nnc(C5CC5)n4C3)ncnc21 (single isomer, unassigned) [Compound 1-31, (S or R)-6-{[3-cyclopropyl-5,6,7,8-tetrahydro[1,2,4]triazolo[4,3-a]pyridin-6-yl]oxy}-9-ethyl-8-(2-methylpyrimidin-5-yl)-9H-purine] | 220 nM | >10
15 | CCn1c(-c2cnc(C)nc2)nc2c(OC3CCc4nnc(C5CC5)n4C3)ncnc21 (single isomer, unassigned) [Compound 1-32, (S or R)-6-{[3-cyclopropyl-5,6,7,8-tetrahydro[1,2,4]triazolo[4,3-a]pyridin-6-yl]oxy}-9-ethyl-8-(2-methylpyrimidin-5-yl)-9H-purine] | 4.4 nM | >10
16 | CCn1c(-c2cnc(C)nc2)nc2c(OC3CCc4nnc(C(C)C)n4C3)ncnc21 (single isomer, unassigned) [Compound 1-33, (S or R)-9-ethyl-6-{[3-(1-methylethyl)-5,6,7,8-tetrahydro[1,2,4]triazolo[4,3-a]pyridin-6-yl]oxy}-8-(2-methylpyrimidin-5-yl)-9H-purine] | 35 nM | >10
17 | CCn1c(-c2cnc(C)nc2)nc2c(OC3CCc4nnc(C(C)C)n4C3)ncnc21 (single isomer, unassigned) [Compound 1-34, (S or R)-9-ethyl-6-{[3-(1-methylethyl)-5,6,7,8-tetrahydro[1,2,4]triazolo[4,3-a]pyridin-6-yl]oxy}-8-(2-methylpyrimidin-5-yl)-9H-purine] | 4.1 nM | >10
